In article PMC4589873, “A pain-inducing centipede toxin targets the heat activation machinery of nociceptor TRPV1” (Nature Communications, 2015):
Entries after “also recorded” stand apart in the source; their conditions may differ. Where a SMILES comes first, the peptide text is derived from it. Bridges are numbered along the chain shown (N, C = ends).

Key:
[1] = system: Trpv1−/− knockout mice; assay: Paw-licking assay in TRPV1 knockout mice; assay type: in vivo, mouse; details: intraplantar, 1 μmol per paw
Method: In vivo effects of RhTx on WT mice or Trpv1^−/− mice were examined according to protocols described previously. For the paw-licking assay, pain was induced in mice by intraplantar injection of 0.1% formalin, capsaicin (1 μmol per paw) or RhTx (1 μmol per paw). Each of the testing materials was dissolved in 100 μl saline. Control mice received the same volume of saline. Injected mice were placed individually into open polyvinyl cages (20 × 40 × 15 cm). Time spent licking the injected paw was recorded by a digital video camera during the following 40 min. For recording colonic temperature from WT or Trpv1^−/− mice, mice equipped with a copper-constantan thermocouple were individually placed in open polyvinyl cages. A data logger was connected to the thermocouple. Mice were injected intraperitoneally with 100 μl saline containing capsaicin or RhTx. The dose of capsaicin or RhTx was 10 μmol kg^−1 for these experiments. Mice in the control group received the same volume of saline.

[2] = system: mTRPV3; assay: Selectivity recording on mTRPV3; assay type: cell-based, mouse; details: RhTx at 10 μM
Method: (§1) As described in details in a previous report, macroscopic currents (in whole-cell, inside-out or outside-out configuration) as well as single-channel currents were recorded using a HEKA EPC10 amplifier with the PatchMaster software (HEKA). Both pipette solution and bath solution contained 130 mM NaCl, 3 mM HEPES and 0.2 mM EDTA (pH 7.2). All recordings were performed at room temperature unless otherwise stated. A holding potential of 0 mV was used from which a testing pulse to +80 mV was applied. Statistical difference was determined using the Student’s t-test, and indicated by ** when reaching the significance level P<0.001.
Supplementary Figure 3. […]
mTRPV2 (c), mTRPV3 (d) and mTRPV4 (e). (f) Treatment with 10 μM RhTx (red traces)

[3] = system: hTRPV1; assay: Whole-cell recording of hTRPV1; assay type: cell-based, human
Method: as §1
Supplementary Figure 3. […] (a) A representative whole-cell recording of hTRPV1 treated with RhTx or capsaicin. (b) Comparison of the dose-response relationships between hTRPV1 and mTRPV1. […]
mTRPV2 (c), mTRPV3 (d) and mTRPV4 (e). (f) Treatment with 10 μM RhTx (red traces) […]
(1 picture or pasted object on this page, not shown here)

[4] = system: TRPV1; assay: Infrared laser-induced heat activation, inside-out patch; assay type: cell-based
Method: The experimental set-up for rapidly heating cell membrane containing expressed TRPV1 channels was described in a previous report. Electrophysiological recordings were done in the inside-out mode. Toxin was added in the pipette solution. Laser light of 1,443 nm was generated by a laser diode (Fitel) driven by a controller (Thorlabs). The maximal optic output power of the laser was 250 mW. The laser light was transmitted to the voltage-clamped cell membrane through a single-mode optical fibre (125 μm outer diameter, 10 μm light-conducting core diameter), with the patch pipette tip placed in front of the centre of the optical fibre. Light energy was absorbed by water and converted to heat to drive channel activation. To calibrate the laser heating system, the relationship between laser driving power and temperature was tabulated as previously described. Briefly, a glass pipette was filled with a solution distinct from the bath solution and was centred at the end of the optical fibre. The laser driving power was adjusted to produce junction potential values matching those measured in the same solutions at different temperatures.

[5] = system: mTRPV1 point mutants at D602, Y632, T634 and L461; assay: Whole-cell current of mTRPV1 point mutants; assay type: cell-based, mouse; details: glycine or alanine mutation, both at 10 μM, +80 mV
Excerpt: TRPV1 and TRPV3 chimeras used in this study were generated by the overlapping extension method[54] and confirmed by DNA sequencing, as described previously. Briefly, to generate V1/3S, the primer pairs (5′-[…]-3′and 5′-[…]-3′) were used. To generate other TRPV1/TRPV3 chimeras, the enzyme cutting sites by MluI were made by the primer pair (5′-[…]-3′ and 5′-[…]-3′) for TRPV1 and the primer pair (5′-[…]-3′ and 5′-[…]-3′) for TRPV3. The enzyme cutting sites by PvuI were made by the primer pair (5′-[…]-3′ and 5′-[…]-3′) for TRPV1 and the primer pair (5′-[…]-3′ and 5′-[…]-3′) for TRPV3. The enzyme cutting sites by BsiWI were made by the primer pair (5′-[…]-3′ and 5′-[…]-3′) for TRPV1 and the primer pair (5′-[…]-3′ and 5′-[…]-3′) for TRPV3. V1/3M were generated by enzyme cut and paste between MluI and PvuI sites, while V1/3L were generated by enzyme cut and paste between MluI and BsiWI sites. V1_S1S2_1, V1_S1S2_3 and V1_S1S2_3 were generated as previously reported. […]
As described in details in a previous report, macroscopic currents (in whole-cell, inside-out or outside-out configuration) as well as single-channel currents were recorded using a HEKA EPC10 amplifier with the PatchMaster software (HEKA). […] Statistical difference was determined using the Student’s t-test, and indicated by ** when reaching the significance level P<0.001.

[6] = system: TRPV1; assay: Single-channel recording of TRPV1; assay type: cell-based; details: single-channel analysis
Method: as §1

[7] = target: T1, mTRPV1 (Mus musculus, UniProt Q704Y3); assay: Whole-cell patch-clamp of mTRPV1 expressed in HEK293 cells; assay type: cell-based
T1 construct: expressed in transfected cells; host or cells: HEK-293T
Excerpt: TRPV1 and TRPV3 chimeras used in this study were generated by the overlapping extension method[54] and confirmed by DNA sequencing, as described previously. Briefly, to generate V1/3S, the primer pairs (5′-[…]-3′and 5′-[…]-3′) were used. To generate other TRPV1/TRPV3 chimeras, the enzyme cutting sites by MluI were made by the primer pair (5′-[…]-3′ and 5′-[…]-3′) for TRPV1 and the primer pair (5′-[…]-3′ and 5′-[…]-3′) for TRPV3. The enzyme cutting sites by PvuI were made by the primer pair (5′-[…]-3′ and 5′-[…]-3′) for TRPV1 and the primer pair (5′-[…]-3′ and 5′-[…]-3′) for TRPV3. The enzyme cutting sites by BsiWI were made by the primer pair (5′-[…]-3′ and 5′-[…]-3′) for TRPV1 and the primer pair (5′-[…]-3′ and 5′-[…]-3′) for TRPV3. V1/3M were generated by enzyme cut and paste between MluI and PvuI sites, while V1/3L were generated by enzyme cut and paste between MluI and BsiWI sites. V1_S1S2_1, V1_S1S2_3 and V1_S1S2_3 were generated as previously reported. All mTRPV1 point mutations were constructed using the QuickChange II XL site-directed mutagenesis kit following the manufacturer’s instruction. These point mutations were sequenced to confirm that appropriate constructs were made. HEK-293T cells were cultured and transiently transfected using Lipofectamine 2,000 (Invitrogen) as previously described.
as §1

[8] = system: TRPV1; assay: Cooling of RhTx- or capsaicin-induced channel activation; assay type: cell-based; details: RhTx at 1 μM
Method: as §1

[9] = system: dorsal root ganglion (DRG) neurons; assay: Calcium imaging of DRG neurons (Fluo-4); assay type: cell-based, mouse; details: RhTx 10 μM, capsaicin 10 μM
Method: Mouse DRG neurons were acutely dissociated and maintained in a short-term primary culture according to procedures as previous descripted. DRG neurons or HEK-293T cells were loaded with Fluo-4 AM in 2 mM Ca^2+ Ringer’s solution (140 mM NaCl, 5 mM KCl, 2 mM MgCl2, 10 mM glucose, 2 mM CaCl2 and 10 mM HEPES, pH 7.4). Fluorescence images of DRG neurons and HEK-293T cells were acquired with an Olympus IX81 microscope with Hamamatsu C4742 charge-coupled device camera controlled by the MetaFluor Software (Molecular Devices). Fluo-4 was excited by a mercury vapour light source with a 500/20-nm excitation filter, while fluorescence emission was detected with a 535/30-nm emission filter. Fluorescence images were required with automated routines written in MetaMorph software (Molecular Devices) and analysed with Igor Pro (Wavemetrics).

T1 sequence (Q704Y3 whole entry): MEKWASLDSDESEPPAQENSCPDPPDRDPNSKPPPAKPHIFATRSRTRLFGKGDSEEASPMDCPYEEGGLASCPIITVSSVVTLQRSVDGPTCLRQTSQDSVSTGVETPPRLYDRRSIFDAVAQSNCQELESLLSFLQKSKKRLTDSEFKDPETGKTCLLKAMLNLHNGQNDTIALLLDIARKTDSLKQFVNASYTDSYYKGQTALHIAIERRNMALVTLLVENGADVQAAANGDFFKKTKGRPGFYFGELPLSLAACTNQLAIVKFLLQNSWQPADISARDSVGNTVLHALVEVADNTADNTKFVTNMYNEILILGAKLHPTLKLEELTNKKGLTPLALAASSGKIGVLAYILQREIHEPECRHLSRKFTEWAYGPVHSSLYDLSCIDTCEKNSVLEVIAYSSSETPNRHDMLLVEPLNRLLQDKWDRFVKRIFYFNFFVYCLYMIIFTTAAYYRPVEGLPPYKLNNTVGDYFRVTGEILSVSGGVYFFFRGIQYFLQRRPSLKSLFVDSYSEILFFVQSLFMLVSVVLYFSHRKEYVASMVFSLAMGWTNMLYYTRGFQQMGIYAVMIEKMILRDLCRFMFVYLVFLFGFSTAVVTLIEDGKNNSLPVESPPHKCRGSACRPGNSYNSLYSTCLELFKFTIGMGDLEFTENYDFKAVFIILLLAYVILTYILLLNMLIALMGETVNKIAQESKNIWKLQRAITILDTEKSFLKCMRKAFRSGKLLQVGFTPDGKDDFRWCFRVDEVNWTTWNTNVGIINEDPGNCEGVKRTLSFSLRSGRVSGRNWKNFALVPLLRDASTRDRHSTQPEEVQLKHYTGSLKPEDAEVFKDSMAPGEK

CC[C@H](C)[C@H](NC(=O)[C@@H]1CSSC[C@@H]2NC(=O)[C@H]([C@@H](C)O)NC(=O)[C@H](C(C)C)NC(=O)CNC(=O)[C@H](CC(N)=O)NC(=O)[C@@H](NC(=O)[C@@H]3CCCN3C(=O)[C@H](CC(N)=O)NC(=O)[C@H](CC(N)=O)NC(=O)[C@@H](N)CC(C)C)CSSC[C@H](NC(=O)[C@H](CCCNC(=N)N)NC(=O)[C@H](Cc3ccc(O)cc3)NC(=O)CNC(=O)[C@H](CO)NC(=O)[C@@H]3CCCN3C2=O)C(=O)N[C@@H](CO)C(=O)N[C@@H]([C@@H](C)CC)C(=O)N[C@@H](C(C)C)C(=O)N[C@@H](CC(=O)O)C(=O)N[C@@H](CCCCN)C(=O)N[C@@H](CCC(N)=O)C(=O)N1)C(=O)N[C@@H](CCCCN)C(=O)N[C@@H](CCCCN)C(=O)N[C@@H](CCC(=O)O)C(=O)O [RhTx] (H-LNNPCNGVTCPSGYRCSIVDKQCIKKE-OH; disulfide 5-16, 10-23; N-terminus and C-terminus assumed)
pain behaviour (paw licking) in knockout mice [1]: ineffective | response of TRPV3 [2]: no detectable effect; also recorded: no discernable response | activation of human TRPV1 [3]: strongly activated | effect on infrared laser-induced heat activation, 50 nM ([4]; RhTx at 50 nM in pipette, inside-out patch, +80 mV): substantially potentiated | lowering of the activation threshold temperature ([4]; RhTx at 100 nM): 6 °C | effect on infrared laser-induced heat activation, 100 nM ([4]; RhTx at 100 nM in pipette, inside-out patch, +80 mV): substantially potentiated | agonist-induced current in point mutants versus WT channel [5]: markedly reduced | inward single-channel current amplitude compared with capsaicin-elicited currents [6]: noticeable reduction | open probability [6]: near unity | activation of mouse TRPV1 [7]: strongly activated | EC50 ([7]; SEM): 522 ± 162 nM | Hill slope ([7]; whole-cell mTRPV1 currents, Hill fit, average±s.e.m., n=10, SEM): 1.17±0.37 | effect of lowering the experimental temperature on agonist-induced channel activation [8]: completely prohibited | intracellular calcium increase in capsaicin-responsive DRG neurons [9]: nearly as strong as capsaicin
